The source of these data is publication PMC10913048, “Snapshots of the Reaction Coordinate of a Thermophilic 2′-Deoxyribonucleoside/ribonucleoside Transferase” (ACS Catalysis, 2024).

Data set [1] has as its target T1, CtNDT (2′-deoxyribonucleoside/ribonucleoside transferase, dNDT) (Chroococcidiopsis thermalis, UniProt K9TVX3, E88A).
T1 construct: gene Chro_1188
Briefly: stopped-flow tryptophan fluorescence; kon […] ^–[…] s^–[…], koff […] s^–[…]. The settings on record: read-out: stopped-flow tryptophan fluorescence; kon 0.76 μM^-1 s^-1, koff 39.3 s^-1. Format: binding.

Data set [2] concerns the target T2, CtNDT (2′-deoxyribonucleoside/ribonucleoside transferase, dNDT) (Chroococcidiopsis thermalis, UniProt K9TVX3).
T2 construct: gene Chro_1188
T2 sequence (K9TVX3 1-155): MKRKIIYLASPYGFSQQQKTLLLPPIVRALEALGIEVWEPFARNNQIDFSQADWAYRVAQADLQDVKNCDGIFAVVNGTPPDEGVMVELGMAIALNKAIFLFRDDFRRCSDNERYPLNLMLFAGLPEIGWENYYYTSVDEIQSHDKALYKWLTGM
Put plainly: stopped-flow fluorescence ([…]′-deoxyribosylation […] s^–[…]); HPLC steady-state kinetics (kcat/KM). Format: binding.

In data set [3] the target is T2, CtNDT (2′-deoxyribonucleoside/ribonucleoside transferase, dNDT). Put plainly: HPLC steady-state transglycosylation kinetics (kcat). Format: biochemical.
Data set [4] shares this target. Briefly: ITC; co-crystal structure. The format is binding.
The target is the same in data set [5]. Briefly: crystal structure of the covalent 2-difluoro-2-deoxyribosyl enzyme after cocrystallization. The format is binding.
The target is the same in data set [6]. Briefly: ITC; stopped-flow fluorescence. Format: binding. In general terms: Isothermal titration calorimetry measures the heat released or taken up as one component is titrated into another.
For data set [7], the target named is T3, CtNDT (2′-deoxyribonucleoside/ribonucleoside transferase, dNDT) (Chroococcidiopsis thermalis, UniProt K9TVX3, D62N).
T3 construct: gene Chro_1188
Put plainly: co-crystal structure. Format: binding.

Data set [8] addresses Chroococcidiopsis thermalis nucleoside 2'-deoxyribosyltransferase (CtNDT), wild type (Chroococcidiopsis thermalis PCC 7203) (UniProt K9TVX3). Put plainly: SEC; size exclusion of purified CtNDT in solution (Figure S1); conditions not shown. (In general: Size exclusion chromatography separates by hydrodynamic size, large species first.)
Substrate in data set [9]: Nc1ncnc2c1ncn2[C@@H]1O[C@H](CO)[C@@H](O)[C@H]1O
Briefly: crystal structure of ribosylated enzyme after cocrystallization; HPLC steady-state kinetics (KM). The format is biochemical, Chroococcidiopsis thermalis. The settings on record: ribosyl covalent on catalytic glutamate E88; D62 near […]′-OH and […]′-OH. From the text: crystal structure of ribosylated enzyme after cocrystallization; HPLC steady-state kinetics (KM) on CtNDT (2′-deoxyribonucleoside/ribonucleoside transferase, dNDT) | determined the structure of a ribosylated enzyme intermediate by cocrystallization of wild-type CtNDT in the presence of Ado

On to `Nc1ncnc2c1ncn2[C@H]1C[C@H](O)[C@@H](CO)O1` [2′-deoxyadenosine], for which the koff in data set [1] was found to be 39.3 ± 0.7 s⁻¹. The “stopped-flow fluorescence (2′-deoxyribosylation 532 s^-1); HPLC steady-state kin” value in data set [2] is 50.5 ± 12.2 mM^–1 s^–1.

For the molecule `Nc1nc2c(ncn2[C@H]2C[C@H](O)[C@@H](CO)O2)c(=O)[nH]1` [2′-deoxyguanosine], the “HPLC steady-state transglycosylation kinetics (kcat)” value in data set [3] is reported as 6.9 ± 0.7 s^–1.

Broadly, the Kd is a measure of binding affinity in units of concentration. A low value points to tighter binding. `O=c1[nH]cnc2c(CN3C[C@H](CO)[C@@H](O)C3)c[nH]c12` [DADme–immucillin-H]: the Kd in data set [4] stood at 0.009 ± 0.005 µM.

Turning to `Nc1ccn([C@@H]2O[C@H](CO)[C@@H](O)C2(F)F)c(=O)n1` [Gemcitabine], in data set [5], the “crystal structure of the covalent 2-difluoro-2-deoxyribosyl enzyme after cocryst” value is recorded as “structure of a 2-difluoro-2-deoxy-ribosylated CtNDT after cocrystallization with Gemcitabine”.

`O=c1[nH]cnc2c([C@@H]3N[C@H](CO)[C@@H](O)[C@H]3O)c[nH]c12` [immucillin-H]: the Kd in data set [6] is 78.2 ± 6.6 µM. The co-crystal structure entry in data set [7] is given as “(b) CtNDTD62N bound to immucillin-H”.

By stoichiometry N is commonly meant the number of molecules, sites or subunits per partner or assembly. Molecule “Chroococcidiopsis thermalis nucleoside 2'-deoxyribosyltransferase (CtNDT), wild type (from UniProt K9TVX3 1-155) (enzyme)” yielded a stoichiometry N in data set [8] of 4.

B1: CtNDT (2′-deoxyribonucleoside/ribonucleoside transferase, dNDT) (Chroococcidiopsis thermalis PCC 7203) (protein)
chain: MKRKIIYLASPYGFSQQQKTLLLPPIVRALEALGIEVWEPFARNNQIDFSQADWAYRVAQADLQDVKNCDGIFAVVNGTPPDEGVMVELGMAIALNKAIFLFRDDFRRCSDNERYPLNLMLFAGLPEIGWENYYYTSVDEIQSHDKALYKWLTGM
A word on the Km: it is the substrate concentration at which the rate is half of its maximum. As for B1, in data set [9], the Km stood at 250 ± 50 µM.
